In this assay the target is T1, human F508del CFTR (Homo sapiens, UniProt P13569, DEL508-508).
T1 construct: expressed in transfected cells; host or cells: Fisher Rat Thyroid (FRT) cells
The experiment in a line: CFTR-YFP High Throughput Assay. To be noted: FRT cells expressing human F508del CFTR and YFP; for Emax: EMax normalized to the positive control, read-out: % Efficacy. The class given is cell-based. A digest of the protocol: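 FRT cells stably co-expressing human F508del CFTR and halide-sensitive YFP-H148Q/I152L; for correction, compound (2 nM-40 μM) incubated 24-26 h at 37° C, washed, then stimulated 60-120 min at RT with 20 μM forskolin plus 30 μM potentiator P3. Iodide-induced YFP quench (Ex 500/Em 540 nm) recorded; quench rates least-squares fitted.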

T1 sequence (P13569 with tags, fused parts or gaps DEL508-508): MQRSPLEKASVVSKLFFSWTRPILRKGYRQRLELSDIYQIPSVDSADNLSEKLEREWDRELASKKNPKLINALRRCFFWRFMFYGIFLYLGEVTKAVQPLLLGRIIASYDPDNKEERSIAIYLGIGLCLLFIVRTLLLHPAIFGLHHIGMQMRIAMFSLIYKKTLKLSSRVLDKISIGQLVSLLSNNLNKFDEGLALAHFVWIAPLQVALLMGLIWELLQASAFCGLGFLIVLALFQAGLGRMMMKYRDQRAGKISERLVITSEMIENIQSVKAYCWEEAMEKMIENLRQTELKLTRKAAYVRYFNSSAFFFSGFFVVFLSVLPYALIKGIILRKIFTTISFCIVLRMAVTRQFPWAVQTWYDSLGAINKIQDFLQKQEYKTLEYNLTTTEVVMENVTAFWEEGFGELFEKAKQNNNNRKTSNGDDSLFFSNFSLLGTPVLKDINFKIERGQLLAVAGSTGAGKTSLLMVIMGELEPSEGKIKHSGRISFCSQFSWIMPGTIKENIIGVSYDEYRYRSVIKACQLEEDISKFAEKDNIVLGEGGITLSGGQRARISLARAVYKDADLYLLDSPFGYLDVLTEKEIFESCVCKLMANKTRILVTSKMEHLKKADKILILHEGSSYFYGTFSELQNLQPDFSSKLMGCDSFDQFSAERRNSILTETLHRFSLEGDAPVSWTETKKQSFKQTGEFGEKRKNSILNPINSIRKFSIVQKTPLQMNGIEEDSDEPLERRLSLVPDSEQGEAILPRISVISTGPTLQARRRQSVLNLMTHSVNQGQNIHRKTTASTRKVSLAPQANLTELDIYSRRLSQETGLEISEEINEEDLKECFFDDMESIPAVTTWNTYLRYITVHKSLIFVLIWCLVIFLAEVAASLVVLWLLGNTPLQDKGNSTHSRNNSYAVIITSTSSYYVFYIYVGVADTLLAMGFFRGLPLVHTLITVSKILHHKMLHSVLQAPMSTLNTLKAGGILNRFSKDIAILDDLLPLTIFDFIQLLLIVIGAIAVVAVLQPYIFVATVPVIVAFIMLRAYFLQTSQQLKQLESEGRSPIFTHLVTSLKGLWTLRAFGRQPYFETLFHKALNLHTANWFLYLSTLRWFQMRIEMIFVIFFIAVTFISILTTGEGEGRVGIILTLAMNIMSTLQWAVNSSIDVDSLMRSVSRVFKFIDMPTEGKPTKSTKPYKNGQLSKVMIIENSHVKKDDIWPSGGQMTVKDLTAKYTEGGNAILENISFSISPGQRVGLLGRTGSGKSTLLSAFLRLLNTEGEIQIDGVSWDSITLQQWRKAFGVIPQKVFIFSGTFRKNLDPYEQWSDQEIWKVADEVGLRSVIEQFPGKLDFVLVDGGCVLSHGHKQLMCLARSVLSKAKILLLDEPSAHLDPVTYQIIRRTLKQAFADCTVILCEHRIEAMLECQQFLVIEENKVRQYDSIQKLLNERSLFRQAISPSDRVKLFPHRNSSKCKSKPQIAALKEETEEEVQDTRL

On to `CCc1ccc(N(CC)C(=O)Cn2nc(-c3ccc(O)cc3)c3ccccc3c2=O)cc1` [Example 2, N-ethyl-N-(4-ethylphenyl)-2-(4-(4-hydroxyphenyl)-1-oxophthalazin-2(1H)-yl)acetamide], for which the Emax is 10 to 30%. Turning to `CCN(C(=O)Cn1nc(-c2cccc(C#N)c2)c2ccc(OC)cc2c1=O)c1ccc2c(c1)OC(F)(F)O2` [Example 75, 2-(4-(3-cyanophenyl)-7-methoxy-1-oxophthalazin-2(1H)-yl)-N-(2,2-difluorobenzo[d][1,3]dioxol-5-yl)-N-ethylacetamide], the Emax was > 80% and the EC50 is < 10 µM. As to `CCN(C(=O)c1nn(-c2ccccc2)c(=O)c2c1c1ccccc1n2C)c1ncnc2c1cnn2C` [Example 164, N-ethyl-5-methyl-N-(1-methyl-1H-pyrazolo[3,4-d]pyrimidin-4-yl)-4-oxo-3-phenyl-4,5-dihydro-3H-pyridazino[4,5-b]indole-1-carboxamide], the Emax lay in the range of 30 to 80%.

The values above are taken from patent US10370366B2 (Flatley Discovery Lab, LLC, priority 2013, dated 2019).
